Laboratory results: patent US4686207A (Abbott Laboratories, priority 1985, dated 1987)
Where a name gives a salt, the structure may show the parent alone.

Assays:
Staph. aureus 10649 [1] = experiment: Chronic abscess model, in vivo efficacy vs. Staph. aureus 10649; set-up: species or system Staph. aureus (infected mouse); conditions: mice pretreated with milk
From the text: Thus, the improved oral activity of the compounds of formula I can be attributed to improved gastrointestinal absorption of these compounds. […] In this model, sustained blood levels of antibiotic will prevent reinfection by the organism at the abscess site after the last treatment.

Staph. aureus 10649 [2] = experiment: Acute mouse protection, in vivo efficacy vs. Staph. aureus 10649 (100-1000 LD50 s); set-up: species or system Staph. aureus (infected mouse); conditions: for ED50 Oral (milk) / ED50 Subcutaneous / ED50: Acute Mouse Protection
From the text: In Vivo Efficacy vs. Staph. aureus 10649
Model Number Subcutaneous
Thus, the improved oral activity of the compounds of formula I can be attributed to improved gastrointestinal absorption of these compounds.

[3] = pH 4; cited from earlier work
[4] = in vivo; cited from earlier work
[5] = in man; cited from earlier work
Acid stability = format: physicochemical; conditions: compared with erythromycin A
[6] = Serum blood levels after oral administration to beagle dogs (FIG. 1); format: in vivo, beagle dog; conditions: 10.0 mg/kg, solution of a buffered salt in water, three beagle dogs, 24 hours
Experimental: The serum half-lives of the new compounds have been measured in both rats and dogs (t0.5 =2-3 hours in rats, 8-12 hours in dogs). […] Similarly, erythromycin A was administered to other dogs at an equal dosage. Serum concentrations of the administered drug were determined hourly over the 24 hours following administration. The results are depicted in FIG. 1.

[7] = tested on: gastrointestinal tissues (stomach, duodenum, jejunum and ileum); experiment: Gastrointestinal stimulating activity in a dog model, overall; conditions: 2 mg/kg intravenously
Experimental: Contractions in the gut were recorded with surgically implanted strain gauges.

[8] = oral, mice pretreated with milk
[9] = Staphylococcus aureus, 10649, po, oral, mice pretreated with milk, read-out: ED50 Oral (milk)
[10] = Staphylococcus aureus, 10649, sc, subcutaneous, read-out: ED50 Subcutaneous

Compound: 4"-N,N-dimethylglycylerythromycin A 11,12-carbonate 6,9-hemiacetal monohydrochloride salt [Example 7]
- ED50 Oral (milk) (Staph. aureus 10649 [1]): 36 mg/kg

Compound: 4"-N-CBZ-sarcosyl erythryomycin A 11,12-carbonate-6,9-hemiacetal [Example 6]
- ED50 Oral (milk) (Staph. aureus 10649 [2]; [8]): 34 mg/kg
- ED50 Subcutaneous (Staph. aureus 10649 [2]; subcutaneous): 35 mg/kg

Compound: CC[C@H]1OC(=O)[C@H](C)[C@@H](O[C@H]2C[C@@](C)(OC)[C@@H](O)[C@H](C)O2)[C@H](C)[C@@H](O[C@@H]2O[C@H](C)C[C@H](N(C)C)[C@H]2O)[C@](C)(O)C[C@@H](C)C(=O)[C@H](C)[C@@H](O)[C@]1(C)O [Compound 1, erythromycin A]
- ED50 (Staph. aureus 10649 [1]; Staphylococcus aureus, 10649, oral): 200 mg/kg
- antibacterial activity in an environment of high acidity [3]: rapidly loses its antibacterial activity
- oral absorption [4]: unreliably absorbed when administered orally
- ED50 Oral (milk) (Staph. aureus 10649 [2]; [8]): 52 mg/kg
- ED50 Subcutaneous (Staph. aureus 10649 [2]; subcutaneous): 9 mg/kg
- ED50 (Staph. aureus 10649 [2]; [9]): 81 mg/kg
- ED50 (Staph. aureus 10649 [2]; [10]): 6 mg/kg
- serum half-life [5]: 2 to 3 h

Compound: CC[C@H]1OC(=O)[C@H](C)[C@@H](O[C@H]2C[C@@](C)(OC)[C@@H](O)[C@H](C)O2)[C@H](C)[C@@H](O[C@@H]2O[C@H](C)C[C@H](N(C)C)[C@H]2O)[C@@]2(C)C[C@@H](C)C(O)(O2)[C@H](C)[C@H]2OC(=O)O[C@@]21C [Compound 2, erythromycin A 11,12-carbonate-6,9-hemiacetal]
- acid stability relative to erythromycin A (Acid stability): significantly more acid-stable than erythromycin A
- ED50 (Staph. aureus 10649 [2]; [9]): 69 mg/kg
- ED50 (Staph. aureus 10649 [2]; [10]): 15 mg/kg
- subcutaneous versus oral activity (Staph. aureus 10649 [2]; Table I, milk-pretreated mice): more active subcutaneously than orally

Compound: CC[C@H]1OC(=O)[C@H](C)[C@@H](O[C@H]2C[C@@](C)(OC)[C@@H](OC(C)=O)[C@H](C)O2)[C@H](C)[C@@H](O[C@@H]2O[C@H](C)C[C@H](N(C)C)[C@H]2O)[C@](C)(O)C[C@@H](C)C(=O)[C@H](C)[C@@H](O)[C@]1(C)O [Compound 3, 4"-acetylerythromycin A]
- ED50 (Staph. aureus 10649 [2]; [9]): 100 mg/kg
- ED50 (Staph. aureus 10649 [2]; [10]): 30 mg/kg

Compound: CC[C@H]1OC(=O)[C@H](C)[C@@H](O[C@H]2C[C@@](C)(OC)[C@@H](OC(C)=O)[C@H](C)O2)[C@H](C)[C@@H](O[C@@H]2O[C@H](C)C[C@H](N(C)C)[C@H]2O)[C@@]2(C)C[C@@H](C)C(O)(O2)[C@H](C)[C@H]2OC(=O)O[C@@]21C [Compound 4, 4"-acetylerythromycin A 11,12-carbonate-6,9-hemiketal HCl salt]
- ED50 (Staph. aureus 10649 [2]; [9]): 40 mg/kg
- ED50 (Staph. aureus 10649 [2]; [10]): 27 mg/kg

Compound: CC[C@H]1OC(=O)[C@H](C)[C@@H](O[C@H]2C[C@@](C)(OC)[C@@H](OC(C)=O)[C@H](C)O2)[C@H](C)[C@@H](O[C@@H]2O[C@H](C)C[C@H](N(C)C)[C@H]2O)[C@@]2(C)C[C@@H](C)C(O)(O2)[C@H](C)[C@H]2OC(=O)O[C@@]21C [Compound 7, 4"-acetylerythromycin A 11,12-carbonate-6,9-hemiacetal free base]
- half life relative to erythromycin A [6]: markedly longer half life
- peak blood level relative to erythromycin A [6]: higher peak blood level

Compound: CC[C@H]1OC(=O)[C@H](C)[C@@H](O[C@H]2C[C@@](C)(OC)[C@@H](O)[C@H](C)O2)[C@H](C)[C@@H](O[C@@H]2O[C@H](C)C[C@H](N(C)C)[C@H]2O)[C@](C)(O)C[C@@H](C)C(=O)[C@H](C)[C@@H](O)[C@]1(C)O [erythromycin A lactobionate]
- stimulation of the stomach, duodenum, jejunum and ileum [7]: pronounced stimulation
